Experimental data taken from patent US10544190B2, “Peptide that supresses binding of beta-amyloid and rage” (ENSOL BIOSCIENCES INC., priority 2016, dated 2020).
Where a SMILES comes first, the peptide text is derived from it. Where no end group is shown, it is not given here.

What was measured:
[1] = system: beta-amyloid 1-42; assay: Inhibition of entry of beta-amyloid 1-42 into brain II (ELISA of brain); type: in vivo; details: ICR mice, peptide 25 mg/kg intraperitoneally; for Beta-amyloid 1-42 concentration in brain: 20 min before i.v. 25 μM beta-amyloid 1-42, control group 60.8 ± 14.8, normal group 0.0 ± 11.9
Procedure: Based on the test results of Example 1, the following test was conducted in order to evaluate whether Example 2 and Comparative Examples 1 and 2, in addition to Example 1, are effective at inhibiting the entry of beta-amyloid 1-42 into the brain.
Specifically, 1 mg ofbeta-amyloid 1-42 (American Peptide Company, Sunnyvale, Calif., USA) was added with 2 ml of hexafluoroisopropanol (HFIP), allowed to stand at room temperature for 3 days, and aliquoted at 100 μl each into tubes. After evaporation of hexafluoroisopropanol (HFIP) using a speed vacuum, 10 μl of an anhydrous DMSO (dimethyl sulfoxide) solution was placed in one of the aliquoted tubes, so as to realize sufficient dissolution, after which 400 μl of phosphate buffer saline (PBS) was added thereto, thus preparing a 25 μM beta-amyloid 1-42 solution.
ICR mice (The Jackson Laboratory, Bar Harbor, Me., USA) were divided into a normal group, a control group and four test groups. The respective test groups were intraperitoneally administered with the peptide of each of Example 1, Example 2, Comparative Example 1, and Comparative Example 2 in amounts of 25 mg/kg, and the control group was treated in the same manner as in the test group, with the exception that an excipient (10% DMSO in saline, 10 ml/kg) was used in lieu of the peptide. After 20 min, the control group and the test groups were intravenously (i.v.) injected through the tail vein with 400 μl of 25 μM beta-amyloid 1-42. Furthermore, the normal group was treated in the same manner as in the control group, with the exception that beta-amyloid 1-42 was not added. 10 min after the tail venous injection of beta-amyloid, about 50 μl of blood was collected from the infraorbital vein of each mouse using a sodium-heparinized capillary tube, after which the mouse was immediately subjected to euthanasia with carbon dioxide (CO2) gas and then the right hemisphere of the mouse was extracted and stored in liquid nitrogen. All the collected blood samples were centrifuged at 13,000 rpm for 10 min. The supernatant was isolated, placed in the prepared tube, and diluted at 1/4000, followed by ELISA (Enzyme-Linked ImmunoSorbent Assay or Enzyme-Linked ImmunoSpecific Assay) ofbeta-amyloid 1-42.
The frozen right hemisphere was added with 3 ml of a RIPA buffer (Radio Immuno Precipitation Assay buffer), sonicated, and centrifuged, after which the supernatant was isolated, followed by protein concentration measurement through BCA assay (bicinchoninic acid assay). BCA assay was performed in accordance with the kit (Thermo Scientific, Waltham, Mass., USA, Cat. No. 23227) protocol. The beta-amyloid 1-42 concentration in the brain was measured through ELISA in a RIPA-homogenate. ELISA was performed in accordance with the kit (IBL International, Hamburg, Germany, Code No. 27711) protocol.

[2] = system: GFAP (glial fibrillary acidic protein); assay: Biomarker change in animal models: brain GFAP by ELISA; type: in vivo, DTg mouse; details: DTg mice, 50 mg/kg intraperitoneally for 13 weeks; control 70.61±26.82
Procedure: (§1) In order to evaluate the effect of changing the biomarker using animal models in which an administration period of a total of 13 weeks was terminated in the <Evaluation of learning and memory recovery effects using animal models> test, the following test was conducted. After termination of intraperitoneal administration for a total of 13 weeks, the animal models were subjected to euthanasia using carbon dioxide (CO2) and the brain thereof was immediately extracted. Upon brain extraction, the entire brain was taken out so as not to be scratched, and was then lightly washed with saline solution. […]
(§2) The left hemisphere stored in a deep freezer at −80° C. was placed in a RIPA buffer (Radio Immuno Precipitation Assay buffer) and sonicated, thus preparing a brain homogenate. Thereafter, the amount of protein was measured through BCA assay (BicinChoninic Acid assay). […] The biomarker expression level was measured through ELISA, and ELISA assay was performed in accordance with the kit{Amyloid-beta(1-42) Elisa kit: IBL International, Hamburg, Germany (27711), TNF-alpha ELISA kit: Koma Biotech, Seoul, Korea (K0331186P), GFAP Elisa kit: Millipore Corporation, Billerica, Mass., USA (NS830)} protocol. […]
(§3) The biomarkers measured through ELISA were beta-amyloid 1-42, TNF-alpha, and GFAP (glial fibrillary acidic protein). […]

[3] = system: beta-amyloid 1-42; assay: Inhibition of entry of blood beta-amyloid 1-42 into brain I (ELISA of brain and plasma); type: in vivo; details: ICR mice; for beta-amyloid 1-42 concentration in the brain: 20 min before i.v. 400 μl of 25 μM beta-amyloid 1-42, brain taken 10 min after
Procedure: The inhibition of entry of blood beta-amyloid 1-42 into the brain by the peptide of Example 1 was experimentally verified. Specifically, in order to evaluate the effect of the peptide of Example 1 on inhibiting the entry of beta-amyloid 1-42 into the brain, which is the cause of Alzheimer's disease, 1 mg of beta-amyloid 1-42 (American Peptide Company, Sunnyvale, Calif., USA) was added with 2 ml of hexafluoroisopropanol (HFIP), allowed to stand at room temperature for 3 days, and aliquoted at 100 μl each into tubes. After evaporation of hexafluoroisopropanol (HFIP) using a speed vacuum, 10 μl of an anhydrous DMSO (dimethyl sulfoxide) solution was placed in one of the aliquoted tubes, so as to realize sufficient dissolution, after which 400 μl of phosphate buffer saline (PBS) was added thereto, thus preparing a 25 μM beta-amyloid 1-42 solution.
ICR mice (The Jackson Laboratory, Bar Harbor, Me., USA) were divided into a normal group, a control group and two test groups. The respective test groups were intraperitoneally administered with the peptide of Example 1 in amounts of 2.5 mg/kg and 25 mg/kg, and the control group was treated in the same manner as in the test group, with the exception that an excipient (10% DMSO in saline, 10 ml/kg) was used in lieu of the peptide of Example 1. After 20 min, the control group and the test groups were intravenously (i.v.) injected through the tail vein with 400 μl of 25 μM beta-amyloid 1-42. Furthermore, the normal group was treated in the same manner as in the control group, with the exception that beta-amyloid 1-42 was not added. […]
The frozen right hemisphere was added with 3 ml of a RIPA buffer (Radio Immuno Precipitation Assay buffer), sonicated, and centrifuged, after which the supernatant was isolated, followed by protein concentration measurement through BCA assay (bicinchoninic acid assay). […] The beta-amyloid 1-42 concentration in the brain was measured through ELISA in a RIPA-homogenate. […]

[4] = system: beta-amyloid 1-42; assay: Biomarker change in animal models: brain beta-amyloid 1-42 by ELISA; type: in vivo, DTg mouse; details: DTg mice, 50 mg/kg intraperitoneally for 13 weeks; control 76.03±25.63
Procedure: as §1, §2, §3

[5] = system: TNF-alpha; assay: Biomarker change in animal models: brain TNF-alpha by ELISA; type: in vivo, DTg mouse; details: DTg mice, 50 mg/kg intraperitoneally for 13 weeks; control 1109.91±285.30; p<0.05
Procedure: as §1, §2, §3

[6] = system: double transgenic mouse (DTg mouse) models having induced human Alzheimer's disease; assay: Learning and memory recovery, Y-maze test in Alzheimer's model mice; type: in vivo; details: 50 mg/kg intraperitoneally once a day, 5 times a week, test 10 weeks after administration, control 49.44±3.88%, P<0.01
Description: The learning and memory recovery effects of the peptide of Example 1 were experimentally verified. Specifically, in order to evaluate the effect of the peptide of Example 1 on inhibiting learning and memory reduction, which are symptoms of Alzheimer's disease, 30-week-old double transgenic mouse (DTg mouse, Jackson Laboratory, USA) models having induced human Alzheimer's disease, obtained in a manner in which a human-derived gene of beta-amyloid precursor protein APP (APPsw; amyloid mutation) having Swedish mutation and a human-derived gene in the form of exon-9 deletion of a gamma secretase PSI gene were over-expressed in the brain through genetic manipulation, were used for tests.
The test animals were acclimated in an animal room after purchase in accordance with the Guidelines for Experimental Animal Tests and treated in accordance with the approved Animal Experimental Plan. The test conditions were maintained at a temperature of 23±1° C. and a humidity of 50±5%, and the light/dark cycle was 12 hr ([…]). During the testing, animals were free to consume water and feed. […]
The Y-maze test is an experiment to observe the voluntary tendency of an animal to search a new environment using short-term memory ability. […] Spontaneous alternation (%) was calculated using the following equation. […]

## DAEF [Comparative Example 1]
[1]
  entry of beta-amyloid into the brain (result in words): did not inhibit
  Beta-amyloid 1-42 concentration in brain: 69.5 ± 6.1 pg/mg protein

## DGEFF [Example 1, DGEFF]
[2]
  GFAP concentration in brain homogenate: 47.63±24.92 ng/mg protein
[3]; peptide 2.5 mg/kg intraperitoneally
  beta-amyloid 1-42 concentration in the brain: 195.5 ± 5.6 pg/mg
[3]; peptide 25 mg/kg intraperitoneally
  beta-amyloid 1-42 concentration in the brain: 187.8 ± 2.4 pg/mg
[3]; peptide 2.5 and 25 mg/kg intraperitoneally, blood 10 min after i.v. beta-amyloid 1-42
  plasma beta-amyloid levels versus control group: not greatly different
[4]
  beta-amyloid 1-42 concentration in brain homogenate: 57.56±28.47 ng/mg protein
[5]
  TNF-alpha concentration in brain homogenate: 798.99±172.90 pg/mg protein
[1]
  Beta-amyloid 1-42 concentration in brain: 54.8 ± 8.0 pg/mg protein
[6]
  spontaneous alternation (Y-maze test): 63.22±2.56%

## N[C@@H](CC(=O)O)C(=O)NCC(=O)N[C@@H](CCC(=O)O)C(=O)N[C@@H](Cc1ccccc1)C(=O)O [Example 2, DGEF] (H-DGEF-OH; N-terminus and C-terminus assumed)
[1]
  entry of beta-amyloid into the brain (result in words): effectively inhibited
  Beta-amyloid 1-42 concentration in brain: 48.8 ± 14.7 pg/mg protein

## VKMDAEFR [Comparative Example 2]
[1]
  entry of beta-amyloid into the brain (result in words): did not inhibit
  Beta-amyloid 1-42 concentration in brain: 87.6 ± 14.9 pg/mg protein
